≈ marks a conversion by molar mass, not a printed value.
Tested on: Septoria tritici (ATCC 26517)
Test: Minimum Inhibitory Concentration (MIC) vs. Septoria tritici
Type: cell-based
Settings: Zymoseptoria tritici, ATCC26517, 168 h; 50% reduction in growth of S. tritici; 22° C., seven days; read-out: Septoria Rating (MIC)
Method: C. Minimum Inhibitory Concentration (MIC) vs. Septoria tritici Compounds were assessed for their ability to inhibit the growth of a common strain of the fungal plant pathogen Septoria tritici (ATCC 26517) using a procedure based on a Clinical and Laboratory Standards Institute (CLSI) microdilution assay protocol for filamentous fungi. Stock solutions of the test compounds and standards were prepared in DMSO at 6400 μg/mL. Each stock solution was used to prepare a 2-fold dilution series ranging from 16 to 0.016 μg/mL (total of 11 compound concentrations) in RPMI-1640 (Roswell Park Memorial Institute) medium containing 3-(N-morpholino)propanesulfonic acid (MOPS) buffer and 2% DMSO. A 100 μL aliquot of the dilutions was added to columns 1 (16 μg/mL compound) through 11 (0.016 μg/mL compound) of a 96-well microtiter plate. This format was replicated in a second row of the microtiter plate. Thus, each microtiter plate could include 11 concentrations of four test or control compounds replicated twice. A 100 μL aliquot of RPMI-1640/MOPS/2% DMSO medium was added to column 12 (no compound control) of the microtiter plate. A fresh culture of S. tritici was used to prepare a solution of approximately 5×10^4 colony-forming units per milliliter (cfu/mL) in RPMI/MOPS medium without DMSO. A 100 μL aliquot of this solution was added to all 96 wells in the microtiter plate. […] The assay plates were incubated at 22° C. for seven days in the dark without shaking. […] In each case of Table 3, the Septoria rating scale is as follows: […]

OC(Cn1cnnn1)(c1ccc(F)cc1F)C(F)(F)c1ccc(OCc2ccc(Cl)cc2)cn1 (stereo not shown) [Compound 4, 1-(5-(4-Chlorobenzyloxy)pyridin-2-yl)-2-(2,4-difluorophenyl)-1,1-difluoro-3-(1H-tetrazol-1-yl)propan-2-ol] and OC(Cn1cnnn1)(c1ccc(F)cc1F)C(F)(F)c1ccc(OCc2ccc(F)cc2)cn1 (stereo not shown) [Compound 19, 2-(2,4-Difluorophenyl)-1,1-difluoro-1-(5-((4-fluorobenzyl)oxy)pyridin-2-yl)-3-(1H-tetrazol-1-yl)propan-2-ol] cannot be ordered by MIC: ≤ 0.5 µg/mL for the first, 0.5 to 1.5 µg/mL (≈ 1.05 to 3.14 µM) for the second.

OC(Cn1cnnn1)(c1ccc(F)cc1F)C(F)(F)c1cc(OCc2ccc(F)cc2F)ccn1 (stereo not shown) [Compound 13, 1-(4-((2,4-Difluorobenzyl)oxy)pyridin-2-yl)-2-(2,4-difluorophenyl)-1,1-difluoro-3-(1H-tetrazol-1-yl)propan-2-ol] and OC(Cn1cnnn1)(c1ccc(F)cc1F)C(F)(F)c1ccc(OCc2cccc(OCC(F)(F)F)c2)cn1 (stereo not shown) [Compound 25, 2-(2,4-Difluorophenyl)-1,1-difluoro-3-(1H-tetrazol-1-yl)-1-(5-((3-(2,2,2-trifluoroethoxy)benzyl)oxy)pyridin-2-yl)propan-2-ol] cannot be ordered by MIC: 0.5 to 1.5 µg/mL (≈ 1.01 to 3.03 µM) for the first, ≤ 0.5 µg/mL for the second.

C=COc1ccc(C(F)(F)C(O)(Cn2cnnn2)c2ccc(F)cc2F)nc1 (stereo not shown) [Compound 14, 2-(2,4-Difluorophenyl)-1,1-difluoro-3-(1H-tetrazol-1-yl)-1-(5-(vinyloxy)pyridin-2-yl)propan-2-ol] and N#CCOc1ccc(C(F)(F)C(O)(Cn2cnnn2)c2ccc(F)cc2F)nc1 (stereo not shown) [Compound 29, 2-((6-(2-(2,4-Difluorophenyl)-1,1-difluoro-2-hydroxy-3-(1H-tetrazol-1-yl)propyl)pyridin-3-yl)oxy)acetonitrile] fall in the same range of MIC: 1.5 to 4 µg/mL (≈ 3.79 to 10.1 µM) for the first, 1.5 to 4 µg/mL (≈ 3.67 to 9.8 µM) for the second.

First: N#Cc1ccc(CSc2ccc(C(F)(F)C(O)(Cn3ncnn3)c3ccc(F)cc3F)nc2)c(F)c1 (stereo not shown) [Compound 16, 4-(((6-(2-(2,4-Difluorophenyl)-1,1-difluoro-2-hydroxy-3-(2H-tetrazol-2-yl)propyl)pyridin-3-yl)thio)methyl)-3-fluorobenzonitrile]
Second: OC(Cn1ncnn1)(c1ccc(F)cc1F)C(F)(F)c1ccc(OCc2cc(F)cc(F)c2)cn1 (stereo not shown) [Compound 36, 1-(5-((3,5-Difluorobenzyl)oxy)pyridin-2-yl)-2-(2,4-difluorophenyl)-1,1-difluoro-3-(2H-tetrazol-2-yl)propan-2-ol]
The MIC of the first is lower: 1.5 to 4 µg/mL (≈ 2.89 to 7.71 µM) for the first, > 4 µg/mL for the second.

First: OC(Cn1cnnn1)(c1ccc(F)cc1F)C(F)(F)c1ccc(SCC(F)(F)F)cn1 (stereo not shown) [Compound 18, 2-(2,4-Difluorophenyl)-1,1-difluoro-3-(1H-tetrazol-1-yl)-1-(5-((2,2,2-trifluoroethyl)thio)pyridin-2-yl)propan-2-ol]
Second: OC(Cn1cnnn1)(c1ccc(F)cc1F)C(F)(F)c1ccc(OCc2ccc(OCC(F)(F)F)cc2)cn1 (stereo not shown) [Compound 20, 2-(2,4-Difluorophenyl)-1,1-difluoro-3-(1H-tetrazol-1-yl)-1-(5-((4-(2,2,2-trifluoroethoxy)benzyl)oxy)pyridin-2-yl)propan-2-ol]
The MIC of the first is higher: 1.5 to 4 µg/mL (≈ 3.21 to 8.56 µM) for the first, ≤ 0.5 µg/mL for the second.

OC(Cn1ncnn1)(c1ccc(F)cc1F)C(F)(F)c1ccc(OCc2ccccc2)cn1 (stereo not shown) [Compound 31, 1-(5-(Benzyloxy)pyridin-2-yl)-2-(2,4-difluorophenyl)-1,1-difluoro-3-(2H-tetrazol-2-yl)propan-2-ol] and OC(Cn1ncnn1)(c1ccc(F)cc1F)C(F)(F)c1ccc(OCc2ccccn2)cn1 (stereo not shown) [Compound 38, 2-(2,4-Difluorophenyl)-1,1-difluoro-1-(5-(pyridin-2-ylmethoxy)pyridin-2-yl)-3-(2H-tetrazol-2-yl)propan-2-ol] cannot be ordered by MIC: > 4 µg/mL for the first, > 4 µg/mL for the second.

With CC#CCOc1ccc(C(F)(F)C(O)(Cn2ncnn2)c2ccc(F)cc2F)nc1 (stereo not shown) [Compound 33, 1-(5-(But-2-yn-1-yloxy)pyridin-2-yl)-2-(2,4-difluorophenyl)-1,1-difluoro-3-(2H-tetrazol-2-yl)propan-2-ol] the MIC was > 4 µg/mL.
